Reference: PMC7509492, “To What Extent Do Fluorophores Bias the Biological Activity of Peptides? A Practical Approach Using Membrane-Active Peptides as Models” (Frontiers in Bioengineering and Biotechnology, 2020)
Like-named read-outs stand apart in the source and are kept apart here. Ends that are not written are not given here. Peptide text beside a SMILES is read from it. * marks the point of attachment. RhodamineB = CCN(CC)c1ccc2c(-c3ccccc3C(=O)*)c3ccc(=[N+](CC)CC)cc-3oc2c1; X1 = CC[N+]1=C(C=CC=C2N(CCCCCC(=O)*)c3ccccc3C2(C)C)C(C)(C)c2ccccc21; 5FAM = O=C1OC2(c3ccc(O)cc3Oc3cc(O)ccc32)c2ccc(C(=O)*)cc21

Legend:
[1] = test system: HBEC-5i cells (in vitro BBB model); assay: In vitro BBB translocation across HBEC-5i transwell monolayer; type: in vitro ADME, human; conditions: HBEC-5i monolayer on PET transwell 1.0 μm pores, apical to basolateral, 10 μM, 24 h, DMEM:F12 without phenol red, mean ± SD, triplicates of three independent experiments
Excerpt: HBEC-5i cells were allowed to grow until confluence in a gelatin-coated T-flask. Then, cells were carefully harvested with trypsin-EDTA (Gibco/Thermo Fisher, United States) and seeded 8,000 cells/well to 0.1% gelatin solution coated tissue culture inserts [transparent polyester (PET) membrane with 1.0 μm pores] for 24-well plates (BD Falcon, United States). During 8 days, the medium was changed every 2 days. After 8 days, cells were washed two times with 1× PBS and once with DMEM:F12 medium without phenol red (Gibco/Thermo Fisher, United States). Then, peptides diluted in DMEM:F12 medium without phenol red to a final concentration of 10 μM were added to the apical side of the in vitro BBB model (Figure 1). Experiments were performed on different days using independently grown cell cultures.
FIGURE 1 Scheme of an in vitro BBB transwell membrane system. Human brain endothelial cells (HBEC-5i) are cultured as monolayer on the apical side of a polyester (PET) transwell insert (1.0 μm pore size). Then, 10 μM of peptides are added to the apical side, and the translocation measured as the amount detected on the basolateral side.
The translocation of peptides labeled with different fluorophores was determined by fluorescence emission. After 24 h incubation, samples from the apical and basolateral side were collected and analyzed. Fluorescence was measured using the infinite F200 TECAN plate reader. The percentage (%) of translocation was calculated using the following equation:
(3) Translocation(%)=(Fi-Fcells/Fpeptide-FMedium)×100
Fi is the fluorescence intensity recovered, Fcells is the fluorescence intensity recovered from cells without peptide incubation, Fpeptide is the fluorescence intensity of total peptide initially added to the transwell apical side, and FMedium is the fluorescence intensity of the medium.
The translocation of unlabeled peptides was determined by the calculation of the respective area under the curve (AUC) in the reversed phase HPLC chromatograms. After 24 h incubation, samples from the apical and basolateral side were collected and analyzed by HPLC on a PerkinElmer Series 200 pump coupled to a PerkinElmer Series 200 UV/Vis Detector on a Luca C18 column (4.6 mm × 50 mm, 3 μm, Phenomenex, United States), eluting with linear gradients of HCOOH/MeCN (0.1%, v/v) into HCOOH/H2O (0.1%, v/v) over 15 min at 1 mL/min. UV detection was λ = 220 nm. The percentage (%) of translocation was calculated using the following equation:
(4) Translocation(%)=(AUCi/AUCpeptide)×100
AUCi is the AUC of peptide recovered and AUCpeptide is the AUC of total peptide initially added to the transwell apical side.

HBEC-5i cells = assay: CellTiter-Blue cell viability assay, HBEC-5i; type: cell-based, human; conditions: peptide 0.01-100 μM, mean ± SD, triplicates of three independent experiments; for IC50: Table 1, 24 h, read-out: Cytotoxicity HBEC-5i cells IC50; for Cytotoxicity HBEC-5i cells IC10: Table 1, concentration causing 10% cell death; for Cytotoxicity HBEC-5i cells IC10 / Cytotoxicity HBEC-5i cells IC90: 24 h; for Cytotoxicity HBEC-5i cells IC90: Table 1, concentration causing 90% cell death
Procedure: (§1) Peptides cytotoxicity against both HBEC-5i and MDA-MB-231 cells was determined using CellTiter-Blue® Cell Viability Assay, according to the manufacturer’s instructions. The assay is based on the ability of viable cells to reduce resazurin into resorufin, a highly fluorescent metabolite. […] Therefore, using this methodology is possible to distinguish between metabolic and non-metabolic cells and indirectly determine the cytotoxicity of peptides. Briefly, HBEC-5i and MDA-MB-231 cells were carefully detached from T-flasks, as described previously, and seeded 15,000/100 and 10,000/100 μL, respectively, in 96-well plates (Corning, United States) and incubated for 24 h. After medium removal, cells were washed two times with 1× PBS and 100 μL of previously diluted peptides (range between 0.01 and 100 μM) in either DMEM or DMEM:F12 medium were added to MDA-MB-231 or HBEC-5i cells, respectively. After 24 h incubation, cells were washed two times with 1× PBS, and 20 μL of CellTiter-Blue® Reagent (diluted in 100 μL of medium) was added to each well and incubated for 3 h in a humidified atmosphere of 5% CO2 at 37°C. The fluorescence intensity was measured at λ with an excitation of 560 nm and maximum emission at 590 nm using the infinite F200 TECAN plate reader. Medium and 1% Triton X-100-containing medium were used as positive controls (100% cell viability) and negative controls (0% cell viability), respectively. Cell viability (%) was determined using the following equation:
(§2) (7) CellViability=FP-FNC/FPC-FNC×100
(§3) Fp is the fluorescence intensity of peptide-treated cells, FNC is the fluorescence intensity for negative controls, and FPC is the fluorescence intensity for positive controls.
(§4) Experiments were performed on different days using independently grown cell cultures.
(§5) FIGURE 4 In vitro cytotoxicity unlabeled- and labeled-peptides. (A,B) Cytotoxicity against HBEC-5i cells. (C,D) Cytotoxicity against MDA-MB-231 cells. 1.5 × 10^4 and 1.0 × 10^4 cells of HBEC-5i and MDA-MB-231 cells, respectively, were incubated with various concentrations of peptides (range from 0.01 to 100 μM). The percentage of viability was determined using CellTiter® Blue reagent assay. […] Error bars, S.D.

human RBCs [2] = assay: Hemolytic activity on human red blood cells; conditions: 37°C; for Hemolytic activity HC10 / Hemolytic activity HC50 / Hemolytic activity HC90: Table 1, human RBCs in 1x PBS pH 7.4, 24 h, peptide 0.01-100 μM, mean ± SD, triplicates of three independent experiments; for Hemolytic activity HC10: concentration causing 10% hemolysis, hemoglobin absorbance 570 nm; for Hemolytic activity HC50: concentration causing 50% hemolysis; for Hemolytic activity HC50 / Hemolytic activity HC90: absorbance 570 nm; for Hemolytic activity HC90: concentration causing 90% hemolysis
Procedure: (§6) Fresh human blood was collected in EDTA tubes and centrifuged at 1,000 × g for 10 min at 4°C. The supernatant was discharged, and the pellet containing RBCs was washed three times with 1× PBS (137 mM NaCl, 2.7 mM KCl, 10 mM Na2HPO4, and 1.8 mM KH2PO4, pH 7.4) and resuspended in 1× PBS to obtain a 2.0% (v/v) suspension. Then, RBCs were added to centrifuge tubes containing two-fold serially diluted peptides to a final concentration ranging from 0.01 to 100 μM. The suspension was incubated for 24 h at 37°C with gentle stirring. After that, samples were centrifuged for 2 min at 1,000 × g. Supernatants were transferred to 96-well plates, and the hemoglobin released measured by absorbance at 570 nm in an Infinite F200 TECAN plate reader. 1× PBS with no peptides and Triton X-100 at 1 and 4% (v/v) were used as negative and positive controls, respectively. Hemolytic activity (%) was determined using the following equation:
(§7) (2) Hemolyticactivity(%)=AbsPT-AbsNC/AbsPC-AbsNC
(§8) where, AbsPT is the absorbance of treated samples, AbsNC is the absorbance from negative control, and AbsPC absorbance from positive control.
(§9) HC50 values were determined using the GraphPad Prism 7.0 software using a log(inhibitor) vs. normalized response. Experiments were performed on different days using independent blood donors.
(§10) (range from 0.01 to 100 μM). The percentage of hemolysis was determined by the absorbance of hemoglobin released into the supernatant. Melittin was included as a control peptide with hemolytic properties. The values were obtained from triplicates of three independent experiments. Error bars, S.D.

[3] = CellTiter-Blue cell viability assay, HBEC-5i; type: cell-based, human; conditions: human, HBEC-5i cells, Table 1, peptide 0.01-100 μM, mean ± SD, triplicates of three independent experiments, read-out: Cytotoxicity HBEC-5i cells IC50
Procedure: as §1, §2, §3, §4, §5

human RBCs [4] = test system: human RBCs
Procedure: as §6, §7, §8, §9, §10

[5] = labeled peptide, quantified by fluorescence emission

Molecule | Translocation (%) [1, 5] [%] | IC50 (HBEC-5i cells) [µM] | Cytotoxicity HBEC-5i cells IC10 (HBEC-5i cells) [µM] | Cytotoxicity HBEC-5i cells IC90 (HBEC-5i cells) [µM] | Hemolytic activity HC10 (human RBCs [2]) [µM] | Hemolytic activity HC50 (human RBCs [2]) [µM] | Hemolytic activity HC90 (human RBCs [2]) [µM] | Translocation (%) ([1]; unlabeled peptide, quantified by HPLC (AUC, UV 220 nm)) | CC50 at 24 h [3] [µM] | Hemolysis of RBCs, in words (human RBCs [2]; human RBCs, up to 100 μM, 24 h) | Hemolytic activity HC10 (human RBCs [4]) [µM] | Hemolytic activity HC50 (human RBCs [4]) [µM] | Hemolytic activity HC90 (human RBCs [4]) [µM] | Hemolytic activity HC10 (human RBCs [4]; pH 7.4) [µM] | Hemolytic activity HC50 (human RBCs [4]; pH 7.4) [µM] | Hemolytic activity HC90 (human RBCs [4]; pH 7.4) [µM]
TF3-SGTQEEY-amide [TF3-PepNeg] | 53.69 ± 2.94 | > 200 | >200 | >200 | >200 | >200 | >200 | – | – | – | – | – | – | – | – | –
AGILKRW-NH2 [PepH3] | – | – | >200 | >200 | >200 | >200 | >200 | 55.15 ± 3.16 | > 200 | non-hemolytic | – | – | – | – | – | –
C[C@@H](O)[C@H](NC(=O)CNC(=O)[C@H](CO)NC(=O)c1ccc2c(c1)C(=O)OC21c2ccc(O)cc2Oc2cc(O)ccc21)C(=O)N[C@@H](CCC(N)=O)C(=O)N[C@@H](CCC(=O)O)C(=O)N[C@@H](CCC(=O)O)C(=O)N[C@@H](Cc1ccc(O)cc1)C(N)=O [CF-PepNeg] (5FAM-SGTQEEY-NH2) | 56.01 ± 3.49 | – | >200 | – | – | – | – | – | > 200 | – | – | – | – | – | – | –
CC[C@H](C)[C@H](NC(=O)CNC(=O)[C@H](C)NC(=O)CCCCCN1C(=CC=CC2=[N+](CC)c3ccccc3C2(C)C)C(C)(C)c2ccccc21)C(=O)N[C@@H](CC(C)C)C(=O)N[C@@H](CCCCN)C(=O)N[C@@H](CCCNC(=N)N)C(=O)N[C@@H](Cc1c[nH]c2ccccc12)C(N)=O [Q570-PepH3] (X1-AGILKRW-NH2) | 59.60 ± 2.64 | – | >200 | – | – | – | – | – | > 200 | – | > 200 | > 200 | > 200 | >200 | >200 | >200
CC[N+]1=C(C=CC=C2N(CCCCCC(=O)N[C@@H](CO)C(=O)NCC(=O)N[C@H](C(=O)N[C@@H](CCC(N)=O)C(=O)N[C@@H](CCC(=O)O)C(=O)N[C@@H](CCC(=O)O)C(=O)N[C@@H](Cc3ccc(O)cc3)C(N)=O)[C@@H](C)O)c3ccccc3C2(C)C)C(C)(C)c2ccccc21 [Q570-PepNeg] (X1-SGTQEEY-NH2) | 48.89 ± 3.05 | – | >200 | – | – | – | – | – | > 200 | – | – | – | – | – | – | –
TF3-AGILKRW-amide [TF3-PepH3] | 56.74 ± 3.89 | > 200 | 184.9 ± 6.57 | >200 | >200 | >200 | >200 | – | – | – | – | – | – | – | – | –
CC[C@H](C)[C@H](NC(=O)CNC(=O)[C@H](C)NC(=O)c1ccccc1-c1c2ccc(=[N+](CC)CC)cc-2oc2cc(N(CC)CC)ccc12)C(=O)N[C@@H](CC(C)C)C(=O)N[C@@H](CCCCN)C(=O)N[C@@H](CCCNC(=N)N)C(=O)N[C@@H](Cc1c[nH]c2ccccc12)C(N)=O [RhB-PepH3] (RhodamineB-AGILKRW-NH2) | 51.57 ± 4.81 | – | >200 | >200 | – | – | – | – | > 200 | – | 9.208 ± 1.564 | 128.3 ± 6.596 | > 200 | 9.208 | 128.3 | >200
CCN(CC)c1ccc2c(-c3ccccc3C(=O)N[C@@H](CO)C(=O)NCC(=O)N[C@H](C(=O)N[C@@H](CCC(N)=O)C(=O)N[C@@H](CCC(=O)O)C(=O)N[C@@H](CCC(=O)O)C(=O)N[C@@H](Cc3ccc(O)cc3)C(N)=O)[C@@H](C)O)c3ccc(=[N+](CC)CC)cc-3oc2c1 [RhB-PepNeg] (RhodamineB-SGTQEEY-NH2) | 51.57 ± 2.43 | – | >200 | >200 | >200 | >200 | >200 | – | > 200 | – | – | – | – | – | – | –
